Here are results for 26 molecules from PubChem BioAssay (NCI).

Assay in all cases: NCI tumour cell line growth inhibition, 48 h
The subject of assay [1] is CCRF-CEM leukemia.
For assay [2], the system named is SK-MEL-2 melanoma.
Assay [3] has as its system EKVX NSCLC.
The test system of assay [4] is OVCAR-5 ovarian.
In assay [5] the test system is DU-145 prostate.

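Each compound was tested at five concentrations against cells in 96-well plates for 48 hours. The concentration for full growth arrest is given as TGI.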

For `COc1ccc(C2C3COc4ccccc4C3=NN2c2ccccc2)cc1` (centres undefined), the TGI in assay [1], in assay [2], in assay [3] and in assay [4] was above 100 µM each time.
For the molecule `COc1ccc(N2C=Nn3c(nc4sc5c(c4c3=O)CCCC5)C2)cc1`, the TGI is above 100 µM in assay [1]; above 100 µM in assay [5]; 93.1 µM in assay [2]; above 100 µM in assay [3]; above 100 µM in assay [4].
As for `Cc1csc(/N=C\c2c(O)c3ccccc3oc2=O)n1`, the TGI is above 100 µM in assay [1]; above 100 µM in assay [5]; 49.5 µM in assay [2]; 99.3 µM in assay [3]; above 100 µM in assay [4].
Take `CCCCCCCCCCCCCCCCOC[C@@H](COC(c1ccccc1)(c1ccccc1)c1ccccc1)O[P+](=S)OC` (some centres undefined): the TGI in assay [1] is 30.1 µM; in assay [5] it was 30.6 µM; in assay [2] it was 33.3 µM; in assay [3], 31.5 µM; in assay [4] it was 28.7 µM.
Take `CCCCON1C[C@H](OC(C)=O)C(OC(C)=O)[C@H](OC(C)=O)C1` (some centres undefined): the TGI in assay [1], in assay [5], in assay [2] and in assay [3] was above 100 µM each time.
On to `O=c1[nH]nc(Cc2ccccc2)n1CCO`, for which the TGI in assay [5], in assay [2], in assay [3] and in assay [4] was above 100 µM each time.
As to `Nc1ccc(C(=O)c2cn(CCN3CCOCC3)c3ccccc23)c2ccccc12`, the TGI in assay [1] was 45.3 µM; in assay [5], above 100 µM; in assay [2] it was above 100 µM; in assay [3], 90.8 µM; in assay [4] it was above 100 µM.
Consider `CC(=O)OC[C@@H](OC(C)=O)[C@H](OC(C)=O)[C@@H]1OC(C)(C)O[C@@H]1C1SCCCS1`, for which the TGI in assay [1], in assay [5], in assay [2], in assay [3] and in assay [4] was above 100 µM in each case.
Consider `S=C(c1c[nH]c2ccccc12)N1CCN(Cc2ccccc2)CC1`, for which the TGI in assay [1] is above 100 µM; in assay [5] it was above 100 µM; in assay [2] it was 34.1 µM; in assay [3], 41.8 µM; in assay [4] it was 30.5 µM.
For `O=[N+]([O-])c1cc2c(cc1/C=N/n1c(CO)nc3ccccc31)OCO2`, the TGI in assay [1], in assay [5], in assay [2], in assay [3] and in assay [4] was above 100 µM each time.
For the molecule `C/C=C/C1OC(O)(C(C)C(O)[C@H](C)C2OC(=O)/C(OC)=C/C(C)=C/[C@@H](C)[C@@H](O)[C@@H](C)C(O)C(C)C/C(C)=C/C=C/C2OC)C[C@@H](OC2CC(O)C(OC(N)=O)C(C)O2)C1C` (some centres undefined), the TGI in assay [5] was 16.2 µM; in assay [2], below 0.01 µM; in assay [3], 8.37 µM; in assay [4], 3.14 µM.
On to `COc1ccc(C2SCC(=O)N2NC(=O)c2ccc(NC(C)=O)cc2)cc1` (centres undefined), for which the TGI in assay [5], in assay [2], in assay [3] and in assay [4] was above 100 µM each time.
Take `CC[C@H]1C=CCC[C@@]2(C[C@@H]3CC[C@H]4[C@@H](C(=O)OCCCCCCCCCCCCCCCC(=O)N(CCCN)C[C@@H](O)CCN)[C@@]5(CCC[C@@H](C)O5)NC(=[N+]34)N2)O1`: the TGI in assay [5] is 3.61 µM; in assay [2] it was 3.29 µM; in assay [3], 3.25 µM; in assay [4], 3.22 µM.
Turning to `N#Cc1c(-c2ccccc2)c(N=Nc2ccc(Cl)cc2)c(=O)n2c1[nH]c1ccccc12`, the TGI in assay [1], in assay [2], in assay [3] and in assay [4] was above 100 µM in each case.
`COC(C)(C)C1(O)CCC(C)CC1=O` (centres undefined): the TGI in assay [5], in assay [3] and in assay [4] was above 100 µM each time.
In the case of `Cc1ccc2nc(-c3ccc(N4C(=O)C(Cl)C4c4ccc(Cl)cc4)cc3)sc2c1` (centres undefined), the TGI is 36.7 µM in assay [1], above 100 µM in assay [5], 19.9 µM in assay [3] and 45.3 µM in assay [4].
As to `O=C(CNc1ccccc1[N+](=O)[O-])Nn1c(-c2ccccc2)nc2ccccc2c1=O`, the TGI in assay [1] was 43.6 µM; in assay [5], above 100 µM; in assay [3], 36.2 µM; in assay [4], 41.3 µM.
Regarding `FC1C2=C(SC1(F)F)C1CCC2C1` (centres undefined), the TGI in assay [5], in assay [2], in assay [3] and in assay [4] was above 100 µM throughout.
For the molecule `Cc1ccc(/C(O)=C/c2nc3ccccc3s/c2=N/CS(=O)(=O)c2ccc(C)cc2)cc1`, the TGI in assay [1], in assay [5] and in assay [4] was above 10 µM throughout.
On to `Cc1ccc(/C=N/Nc2ccc3ccccc3n2)s1`, for which the TGI in assay [1] is above 100 µM; in assay [2] it was above 100 µM; in assay [3], 32.2 µM; in assay [4], above 100 µM.
As for `COc1cc2c(cc1OC)C1(COc3cc(O)c(O)c(O)c3C1=O)C2` (centres undefined), the TGI in assay [1], in assay [5], in assay [2] and in assay [4] was above 50 µM each time.
`Clc1ccc(C(SCc2ccccc2)SCc2ccccc2)cc1`: the TGI in assay [1], in assay [5], in assay [2] and in assay [3] was above 10 µM throughout.
On to `CCOC(=O)/C(C#N)=C/c1ccnc2ccccc12`, for which the TGI in assay [5], in assay [2], in assay [3] and in assay [4] was above 100 µM throughout.
As to `CCOC(=O)c1sc2[n+](c1C)C(=O)/C(=C/c1ccc([N+](=O)[O-])cc1)S2`, the TGI in assay [1] is above 100 µM; in assay [5], 92.3 µM; in assay [2] it was 51.2 µM; in assay [4] it was above 100 µM.
For `C=CCO[C@]1(CC=C)C(=O)C(=O)OC1C1COC(C)(C)O1` (some centres undefined), the TGI in assay [1] was 89.5 µM; in assay [5], above 100 µM; in assay [3] it was above 100 µM; in assay [4] it was above 100 µM.
Turning to `Cc1ccc2oc(=O)c(C(=O)Nc3nc(C45CC6CC(CC(C6)C4)C5)cs3)cc2c1`, the TGI in assay [1], in assay [5], in assay [3] and in assay [4] was above 100 µM throughout.
